Measured values from patent US6969708B1, “Process for the preparation of a high purity composition comprising (7α, 17α)- 17-hydroxy- 7-methyl- 19-nor-17-pregn-5(10)-en-20-yn-3-one” (Akzo Nobel N.V., priority 1998, dated 2005).

Assay: Stress test at 45° C. of bulk Tibolone crystals (increase of Org OM38)
Format: physicochemical
Method: A solution of (7α, 17α)-3,3-dimethoxy-17-hydroxy-7-methyl-19-norpregn-5(10)-en20-yn-3-one (15 kg) in a mixture of pyridine (630 ml) and ethanol (315 liters) was mixed with a solution of oxalic acid (750 gr) in water (90 liters) and the mixture was stirred for 2 hours at approximately 30° C. The solution was poured out in a mixture of pyridine (1350 ml) and water (300 liters) and the resulting suspension was filtered. The crystals were washed with a mixture of water and pyridine and dried under vacuum at 40° C. to give (7α, 17α)-17-hydroxy-7-methyl-19-norpregn-5(10)-en-20-yn-3-one containing 0.6% of the corresponding (7α, 17α)-17-hydroxy-7-methyl-19-norpregn-4-en-20-yn-3-one as indicated by HPLC analysis; a stress test at 45° C. (duration 1 month) indicated a 0.4% increase of the latter compound.
A solution of (7α, 17α)-3,3-dimethoxy-17-hydroxy-7-methyl-19-norpregn-5(10)-en-20-yn-3-one (15 kg) in a mixture of pyridine (630 ml) and ethanol (315 liters) was mixed with a solution of oxalic acid (375 gr) in water (90 liters) and the mixture was stirred for 3 hours at approximately 30° C. The solution was poured out in a mixture of pyridine (1350 ml) and water (300 liters) and the resulting suspension is filtered. The crystals are washed with a mixture of water and pyridine and allowed to age for 3–6 days at room temperature. Subsequently, the crystals were dried under vacuum at 40° C. to give (7α, 17α)-17-hydroxy-7-methyl-19-norpregn-5(10)-en-20-yn-3-one containing≦0.1% of the corresponding (7α, 17α)-17-hydroxy-7-methyl-19-norpregn-4-en-20-yn-3-one as indicated by HPLC analysis; a stress test at 45° C. (duration 1 week) indicated a<0.1% increase of the latter compound.
The preparation as described in example 2 was repeated. (7α, 17α)-17-hydroxy-7-methyl-19-norpregn-5(10)-en-20-yn-3-one was obtained which contained 0.2% of the corresponding. (7α, 17α)-17-hydroxy-7-methyl-19-norpregn-4-en-20-yn-3-one as indicated by HPLC analysis; a stress test at 45° C. (duration 1 week) indicated a 0.1% increase of the latter compound.

Structure (SMILES)	increase of (7α, 17α)-17-hydroxy-7-methyl-19-norpregn-4-en-20-yn-3-one in stress test (duration 1 week)	increase of (7α, 17α)-17-hydroxy-7-methyl-19-norpregn-4-en-20-yn-3-one in stress test (duration 1 month)
C#C[C@]1(O)CCC2C3C(CCC21C)C1=C(CC(=O)CC1)C[C@H]3C (single isomer, unassigned) [Example 3, (7α, 17α)-17-hydroxy-7-methyl-19-norpregn-5(10)-en-20-yn-3-one]	0.1%	–
C#C[C@]1(O)CCC2C3C(CCC21C)C1=C(CC(=O)CC1)C[C@H]3C (stereo partly drawn) [Example 1, (7α, 17α)-17-hydroxy-7-methyl-19-norpregn-5(10)-en-20-yn-3-one]	–	0.4%
C#C[C@]1(O)CCC2C3C(CCC21C)C1=C(CC(=O)CC1)C[C@H]3C (single isomer, unassigned) [Example 2, (7α, 17α)-17-hydroxy-7-methyl-19-norpregn-5(10)-en-20-yn-3-one]	< 0.1%	–
